Like-named read-outs stand apart in the source and are kept apart here. Where no end group is shown, it is not given here.
Experiments:
Assay in all cases: MHC II competition binding assay
DRB1*1501 = molecular target: T1, DRB1*1501 (Homo sapiens, UniProt P01903+P01911)
T1 construct: purchased Benaroya Research Institute (Seattle, Wash.)
Description: MHC Binding Assays. […] Briefly, 100 nM biotinylated control peptides composed of known peptide antigens for each MHC II allele were incubated in polypropylene 384-well plates with 50 nM purified recombinant MHC II protein and serial dilutions of LST or variant peptide fragments (100 μM to 10 nM). Peptide-MHC II complexes were captured from equilibrated solutions using the conformation specific anti-HLA-DR antibody L243 coated on high binding ELISA plates. Bound control peptide was quantified using the DELFIA streptavidin-Europium conjugate and time resolved fluorescence (SpectraMax Gemini Fluorescence Microplate Reader).

DRB1*0301 = molecular target: T2, DRB1*0301 (Homo sapiens, UniProt P01903+P01911, A100K/A102G/A103R/A169T/F55Y/I96L/K41T/L162R/M171V/P40S/Q125H/Q178H/Q39Y/R42S/S66N/T106N/T262R/W38E/Y61H)
T2 construct: purchased Benaroya Research Institute (Seattle, Wash.)
Description: (§1) MHC Binding Assays. MHC II competition binding assays were performed using a 384-well high throughput assay as previously described (Salvat, et al. (2014) supra). Binding assays were performed for the eight alleles: DRB1*0101, 0301, 0401, 0701, 0801, 1101, 1301, and 1501. Briefly, 100 nM biotinylated control peptides composed of known peptide antigens for each MHC II allele were incubated in polypropylene 384-well plates with 50 nM purified recombinant MHC II protein and serial dilutions of LST or variant peptide fragments (100 μM to 10 nM). Peptide-MHC II complexes were captured from equilibrated solutions using the conformation specific anti-HLA-DR antibody L243 coated on high binding ELISA plates. Bound control peptide was quantified using the DELFIA streptavidin-Europium conjugate and time resolved fluorescence (SpectraMax Gemini Fluorescence Microplate Reader).

DRB1*0801 = DRB1*0801 (Homo sapiens, UniProt P01903+P01911, A100R/A103L/A169T/D86S/F76Y/H45Y/I96F/K41T/L162R/M171V/P40S/Q125H/Q178H/Q39Y/Q99D/R218S/R42G/S66Y/V115G/W38E)
Description: as §1

DRB1*0701 = DRB1*0701 (Homo sapiens, UniProt P01903+P01911, A100R/A102G/A103Q/D57E/D86V/E43K/F76Y/K127E/L162R/M171V/P40G/Q125H/Q99D/R33Q/R42Y/R54Q/S133A/S66F/T210M/V115G/Y107V/Y59L/Y89S)
Description: as §1

DRB1*0401 = molecular target: T3, DRB1*0401 (Homo sapiens, UniProt P01903+P01911, A100K/A169T/F76Y/I96L/K127E/L162R/M171V/N62H/P40V/Q125Y/R42H/S133A/S149N/S66Y/V115G/V209L/W38E)
T3 construct: purchased Benaroya Research Institute (Seattle, Wash.)
Description: as §1

DRB1*0101 = molecular target: T4, DRB1*0101 (Homo sapiens, UniProt P01903+P01911, A100R/D57E/F55L/F60I/F76Y/I96L/L162R/M171V/P40L/Q125E/R42F/V115G/Y59C)
T4 construct: purchased Benaroya Research Institute (Seattle, Wash.)
Description: as §1

DRB1*1101 = DRB1*1101 (Homo sapiens, UniProt P01903+P01911, A100R/A169T/A87E/I96F/K41T/L162R/M171V/P40S/Q125H/Q178H/Q39Y/Q99D/R42S/S66Y/T262R/V115G/W38E)
Description: as §1

DRB1*1301 = DRB1*1301 (Homo sapiens, UniProt P01903+P01911, A100E/A169T/K41T/L162R/M171V/P40S/Q125H/Q178H/Q39Y/Q99D/R42S/S66N/T262R/W38E/Y61H)
Description: as §1

[1] = synthetic peptide competing with biotinylated control peptide, read-out: IC50 1501
[2] = synthetic peptide competing with biotinylated control peptide, read-out: IC50 0301
[3] = synthetic peptide competing with biotinylated control peptide, read-out: IC50 0801
[4] = synthetic peptide competing with biotinylated control peptide, read-out: IC50 0701
[5] = synthetic peptide competing with biotinylated control peptide, read-out: IC50 0401

SAQWLNNYKKGYGYG [Design C1WT]
IC50 (DRB1*1501; [1]): 101 µM
IC50 (DRB1*0301; [2]): > 250 µM
IC50 (DRB1*0801; [3]): 13.7 µM
IC50 (DRB1*0701; [4]): > 250 µM
IC50 (DRB1*0401; [5]): > 250 µM

HLHFQRMVGSFSNPTAQ [Peptide N121G]
IC50 (DRB1*1501): < 0.01 µM
IC50 (DRB1*0101; DRB1*0101, read-out: IC50): < 0.01 µM
IC50 (DRB1*0301; DRB1*0301, read-out: IC50): > 250 µM
IC50 (DRB1*0801; DRB1*0801, read-out: IC50): > 250 µM
IC50 (DRB1*0701; DRB1*0701, read-out: IC50): 17.4 µM
IC50 (DRB1*0401; DRB1*0401, read-out: IC50): 6.13 µM
IC50 (DRB1*1101; DRB1*1101, read-out: IC50): 6.41 µM
IC50 (DRB1*1301; DRB1*1301, read-out: IC50): > 250 µM

SAQWLNHYKKGYGYG [Design N13H]
IC50 (DRB1*1501; [1]): > 250 µM
IC50 (DRB1*0101; synthetic peptide competing with biotinylated control peptide, read-out: IC50 0101): > 250 µM
IC50 (DRB1*0301; [2]): > 250 µM
IC50 (DRB1*0801; [3]): > 250 µM
IC50 (DRB1*0701; [4]): > 250 µM
IC50 (DRB1*0401; [5]): > 250 µM

Lys46His: full-length lysostaphin single point mutant
fold decrease in binding vs wild-type peptide, 0101 (DRB1*0101): two-fold

GVDFFMNEGTPVHAISSGKIV [Design 41_46]
IC50 (DRB1*1501): < 0.01 µM
IC50 (DRB1*0101): < 0.01 µM
IC50 (DRB1*0301): > 250 µM
IC50 (DRB1*0801): > 250 µM
IC50 (DRB1*0401): < 0.01 µM
IC50 (DRB1*1101): < 0.01 µM
IC50 (DRB1*1301): > 250 µM

HLHFQRMVNDFSNPTAQ [Peptide S122D]
IC50 (DRB1*1501): < 0.01 µM
IC50 (DRB1*0101): < 0.01 µM
IC50 (DRB1*0301): 9.42 µM
IC50 (DRB1*0801): 150 µM
IC50 (DRB1*0701): > 250 µM
IC50 (DRB1*0401): < 0.01 µM
IC50 (DRB1*1101): < 0.01 µM
IC50 (DRB1*1301): > 250 µM

Asn13His: full-length lysostaphin single point mutant
binder class DRB1*1301 (DRB1*1301): weak (weak if an IC50 value was in the 1-10 μM range)

GVDFFMNIGTPVKAISSGKIV [Design C2WT]
IC50 (DRB1*0801; [3]): > 250 µM
IC50 (DRB1*0401; [5]): 13.7 µM
IC50 (DRB1*1301; synthetic peptide competing with biotinylated control peptide, read-out: IC50 1301): 104 µM

DHVEAGQQIGWSGSTGY [Peptide 939599]
IC50 (DRB1*1501; DRB1*1501, read-out: IC50): > 250 µM
IC50 (DRB1*0101; DRB1*0101, read-out: IC50): > 250 µM
IC50 (DRB1*0301; DRB1*0301, read-out: IC50): > 250 µM
IC50 (DRB1*0801; DRB1*0801, read-out: IC50): > 250 µM
IC50 (DRB1*0401; DRB1*0401, read-out: IC50): > 250 µM
IC50 (DRB1*1101; DRB1*1101, read-out: IC50): > 250 µM
IC50 (DRB1*1301; DRB1*1301, read-out: IC50): > 250 µM

Tyr93His/Lys95Glu/Ile99Gln: cluster 4 synthetic peptide with three mutations (Table 15) (DHVEAGQQIGWSGSTGY)
binder class DRB1*1501 (DRB1*1501): weak/non-binder
binder class DRB1*0101 (DRB1*0101): weak or non-binder

HLHFQRMVGDFSNPTAQ [Peptide 21_22]
IC50 (DRB1*1501): < 0.01 µM
IC50 (DRB1*0101): < 0.01 µM
IC50 (DRB1*0301): 77.4 µM
IC50 (DRB1*0801): 210 µM
IC50 (DRB1*0701): > 250 µM
IC50 (DRB1*0401): < 0.01 µM
IC50 (DRB1*1101): 28.5 µM
IC50 (DRB1*1301): > 250 µM

DYVKAGQQIGWSGSTGY [Peptide I99Q]
IC50 (DRB1*0301): > 250 µM
IC50 (DRB1*0801): > 250 µM
IC50 (DRB1*1301): > 250 µM

HLHFQRMVGDFGNPTAQ [Peptide 212224]
IC50 (DRB1*1501): 24.2 µM
IC50 (DRB1*0101): 0.18 µM
IC50 (DRB1*0301): 116 µM
IC50 (DRB1*0801): > 250 µM
IC50 (DRB1*0701): > 250 µM
IC50 (DRB1*0401): 5.55 µM
IC50 (DRB1*1101): 13.4 µM
IC50 (DRB1*1301): > 250 µM

DYVEAGQQIGWSGSTGY [Peptide 95-99]
IC50 (DRB1*1501; DRB1*1501, read-out: IC50): < 0.01 µM
IC50 (DRB1*0101; DRB1*0101, read-out: IC50): < 0.01 µM
IC50 (DRB1*0301; DRB1*0301, read-out: IC50): > 250 µM
IC50 (DRB1*0801; DRB1*0801, read-out: IC50): > 250 µM
IC50 (DRB1*0701; DRB1*0701, read-out: IC50): 104 µM
IC50 (DRB1*1301; DRB1*1301, read-out: IC50): > 250 µM

HLHFQTMVNSFSNPTAQ [Peptide R118T]
IC50 (DRB1*1501): < 0.01 µM
IC50 (DRB1*0101): < 0.01 µM
IC50 (DRB1*0301): 68.4 µM
IC50 (DRB1*0801): 57.7 µM
IC50 (DRB1*0701): 23.1 µM
IC50 (DRB1*0401): < 0.01 µM
IC50 (DRB1*1101): < 0.01 µM
IC50 (DRB1*1301): > 250 µM

Source: patent US11091749B2, “Deimmunized lysostaphin and methods of use” (TRUSTEES OF DARTMOUTH COLLEGE, priority 2014, dated 2021)
